Experimental data as given in ChEMBL document CHEMBL5325495, “Synthesis and anti-cancer potential of potent peripheral MAOA inhibitors designed to limit blood:brain penetration” (Bioorg Med Chem, 2023).

Tests used:
[1] = biological target: T1, Amine oxidase [flavin-containing] A (Homo sapiens, UniProt P21397); assay: Inhibition of recombinant human MAO-A expressed in baculovirus infected BTI insect cells
T1 sequence (P21397 whole entry): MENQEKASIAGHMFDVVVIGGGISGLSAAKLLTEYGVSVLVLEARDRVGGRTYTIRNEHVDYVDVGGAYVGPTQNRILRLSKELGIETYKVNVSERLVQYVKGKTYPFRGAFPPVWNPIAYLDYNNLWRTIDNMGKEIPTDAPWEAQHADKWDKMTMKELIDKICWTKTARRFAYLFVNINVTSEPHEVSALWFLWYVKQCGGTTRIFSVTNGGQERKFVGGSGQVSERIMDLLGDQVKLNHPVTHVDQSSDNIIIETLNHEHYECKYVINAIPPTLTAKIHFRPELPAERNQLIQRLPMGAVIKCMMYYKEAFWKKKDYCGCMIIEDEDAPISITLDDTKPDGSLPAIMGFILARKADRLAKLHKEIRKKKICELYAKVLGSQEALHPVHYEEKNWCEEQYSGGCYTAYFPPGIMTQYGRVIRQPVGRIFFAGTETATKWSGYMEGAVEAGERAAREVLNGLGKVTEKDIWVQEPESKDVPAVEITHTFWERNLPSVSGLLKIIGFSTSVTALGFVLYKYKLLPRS

[2] = biological target: T2, Amine oxidase [flavin-containing] B (Homo sapiens, UniProt P27338); assay: Inhibition of recombinant human MAO-B expressed in baculovirus infected BTI insect cells; assay type: cell-based
T2 sequence (P27338 whole entry): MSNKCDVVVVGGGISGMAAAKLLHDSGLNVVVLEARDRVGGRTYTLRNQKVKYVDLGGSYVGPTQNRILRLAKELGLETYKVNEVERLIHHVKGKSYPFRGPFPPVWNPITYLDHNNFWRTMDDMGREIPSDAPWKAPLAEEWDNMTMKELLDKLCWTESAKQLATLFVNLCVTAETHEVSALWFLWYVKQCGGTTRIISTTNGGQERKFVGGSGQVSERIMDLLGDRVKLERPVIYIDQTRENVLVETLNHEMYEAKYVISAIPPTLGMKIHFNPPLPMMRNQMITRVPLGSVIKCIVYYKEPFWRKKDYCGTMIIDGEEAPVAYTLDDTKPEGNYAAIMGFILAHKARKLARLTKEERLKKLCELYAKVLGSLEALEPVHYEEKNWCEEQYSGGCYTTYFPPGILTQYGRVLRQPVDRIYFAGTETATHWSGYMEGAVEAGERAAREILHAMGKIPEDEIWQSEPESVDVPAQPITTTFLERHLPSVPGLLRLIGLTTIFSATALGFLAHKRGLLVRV

LNCaP = assay: Cytotoxicity against human LNCaP cells incubated for 3 days by Cell-Titer Glo assay; assay type: functional; conditions: 72 h, time 3 day
LNCaP C4-2B = assay: Cytotoxicity against human LNCaP C4-2B cells incubated for 3 days by Cell-Titer Glo assay; assay type: functional; conditions: 72 h, time 3 day

Row | Structure (SMILES) | IC50 [1] [µM] | IC50 [2] [µM] | CC50 (LNCaP) [µM] | CC50 (LNCaP C4-2B) [µM]
1 | C#CCN(C)CCCOc1cc(NC=O)c(Cl)cc1Cl | 6.6 | 25.3 | 85.9 | 84
2 | NNCCc1ccccc1 [PHENELZINE] | – | – | 121 | 157
3 | C#CCN(CCO)CCCOc1ccc(Cl)cc1Cl | 0.794 | > 500 | 35.7 | 46.5
4 | C#CCN(C)CCCOc1cc(C#N)c(Cl)cc1Cl | 0.103 | 38 | 65.4 | 72.4
5 | C#CCN(CCO)CCCOc1cc(N)c(Cl)cc1Cl | 0.764 | > 500 | 55.8 | 43.9
6 | C#CCN(C)CCCOc1cc(NC(=O)c2cc[nH]n2)c(Cl)cc1Cl | 25.7 | > 500 | 15.8 | 32.5
7 | C#CCN(C)C[C@@H](O)COc1cc(N)c(Cl)cc1Cl | 0.0715 | > 500 | 78.9 | 73.7
8 | C#CCN(C)CCCOc1cc(O)c(Cl)cc1Cl | 0.0244 | 0.91 | 35.5 | 30.2
9 | C#CCN(C)CCCOc1cc(NS(C)(=O)=O)c(Cl)cc1Cl | 0.064 | 69.6 | 103 | 119
10 | C#CCN(C)CCCOc1cc(NC(C)=O)c(Cl)cc1Cl | 8.66 | 352 | 97.3 | 97
11 | C#CCN(C)CCCOc1cc(N)c(Cl)cc1Cl | 0.0148 | > 500 | 31.1 | 31.6
12 | C#CCN(C)C[C@H](O)COc1cc(N)c(Cl)cc1Cl | 0.0715 | > 500 | 78.9 | 73.7
13 | C#CCN(C)CCCOc1ccc(Cl)cc1Cl [CLORGILINE] | – | – | 51.5 | 53.5
14 | C#CCN(C)CCCOc1cc(C)c(Cl)cc1Cl | 6.78 | 122 | 37 | 66
